# What was measured:
# Assay type in all cases: physicochemical
# [1] = Scale-up preparation of Form C with DVS
# Method: Approximately 300 mg of Form A was weighed into a 4 mL glass vial and 2.5 mL of MeCN was added slowly to make a slurry. The sample vial was kept at 50° C. with stirring for 3 days. After 3 days, slurry material was isolated and dried at 40° C. with a N2 bleed.
# [2] = Excipient compatibility study with Compound A sesquifumarate; conditions: for Change in appearance, XRPD or DSC: 8 weeks 25° C./60% RH or 4 weeks 40° C./75% RH
# Excerpt: The first activity in developing a tablet formulation was selection of excipients. The main purpose of the excipient compatibility study was to evaluate changes in related substances, specifically Impurity A (relative retention time [RRT]˜0.98). […] However, formation of this degradant is not possible in product containing Compound A citrate, as it is formed by reaction of the sesquifumarate drug substance with the double bond in fumaric acid. A secondary purpose of the compatibility study was to assess changes in Compound A assay and physical properties. Even though formation of Impurity A is not possible for Compound A citrate, chemical and physical results of this study were still used to guide tablet excipient selection.
# Common excipients were evaluated as part of the excipient compatibility study. Samples were incubated at 25° C./60% RH long-term condition as well as a 40° C./75% RH accelerated condition. Individual vials were removed for analysis at 0, 4, and 8 weeks. Samples were tested for appearance, Compound A sesquifumarate assay and related substances, X-ray powder diffraction (XRPD), and differential scanning calorimetry (DSC) at T-0 and 4 weeks for both long-term and accelerated conditions, and 8 weeks for the long-term condition. At 8 weeks, the accelerated condition samples were tested for Compound A sesquifumarate assay and related substances only. Assay and related substances were tested by reversed-phase ultra-performance liquid chromatography (RP-UPLC), with adjusted sample preparation to accommodate small sample amounts. Vials of Compound A sesquifumarate alone were used as controls.
# [3] = Solution stability of Compound A sesquifumarate at 25° C. and 40° C.; conditions: for Appearance / Compound A Sesquifumarate Purity (Average % area) / Impurity A (Average % area) / pH: 50 mg/mL formulation
# Method: The initial F1 and F2 formulations utilized Compound A sesquifumarate. The pH stability of Compound A sesquifumarate solutions was studied in water at pH 5.0, 5.5, and 6.0 over 4 weeks at 25° C. and 40° C. The desired concentration of 50 mg/mL was soluble at all pH values, although Compound A dissolution occurred more rapidly at lower pH. There was a single major degradant, designated as Impurity A (relative retention time [RRT]˜0.98).
# Stability of formulations containing Compound A sesquifumarate was studied at 50 mg/mL in a formulation consisting of 0.07% advantame, 20 mM citrate, 1% grape flavor (FONA), 1% sodium chloride, and 0.02% propyl paraben at pH 6.5. Stability was measured over 4 weeks in glass vials at the accelerated condition of 25° C. Stability of the same formulation but at […] was also studied at the supra-accelerated condition of 40° C. These studies were conducted prior to preservative effectiveness testing and therefore used propyl paraben instead of the methylparaben sodium:potassium sorbate combination used in the final formulation.
# [4] = Aqueous solubility of Compound A salts
# Method: Solubility of Compound A citrate was determined in 3 different types of matrices: unbuffered water, citrate-buffered solutions from pH 3 to 6, and formulations consisting of citrate, advantame, methylparaben sodium, potassium sorbate, and sodium chloride at pH ranging from 3 to 6. Solubility in unbuffered water at ambient temperature was 38.5 mg/mL.
# The target pH was reassessed when the F3 formulation was developed. Compound A citrate solubility studies were performed initially in simple buffered solutions to assess solubility trends as a function of pH. […] The target concentration of Compound A was therefore changed to 40 mg/mL as a compromise between drug substance and preservatives dissolution rate and stability.
# [5] = Solution stability studies at accelerated conditions, counterion adduct (Impurity A); conditions: fumarate reacts with the pyrimidine ring; in solution and solid API
# Excerpt: Compound A monocitrate monohydrate has at least two advantageously and unexpected characteristics. […] Second, in the manufacturing process, Compound A fumarate requires a separate slurrying step which results in a solvate with an organic solvent. Compound A monocitrate monohydrate salt is isolated directly from ethanol:water, no slurrying step is required. […] Additionally, the Compound A monocitrate forms a monohydrate instead of a solvate with one or more organic molecules.
# Although this degradation pathway is more accelerated in solution it was also observed in the solid API. Formation of Impurity A was the reason why Compound A sesquifumarate API and drug product were stored at refrigerated temperatures.
# [6] = Form C screening experiments
# [7] = Exp. 1/5: reactive crystallization, material 166 mg, citric acid 51 mg, MeCN 1.0 mL, RT
# [8] = Exp. 2/6: reactive crystallization, material 166 mg, citric acid 51 mg, EtOAc 1.0 mL, RT
# [9] = Exp. 3/7: reactive crystallization, material 166 mg, citric acid 51 mg, MeCN 1.0 mL, 50 °C
# [10] = Exp. 4/8: reactive crystallization, material 166 mg, citric acid 51 mg, EtOAc 1.0 mL, 50 °C
structure (smiles),measurement,setting,value
CC#N.CCN(C(=O)c1cc(F)ccc1Oc1cncnc1N1CC2(CCN(CC3CCC(NS(=O)(=O)CC)CC3)CC2)C1)C(C)C.O=C(O)CC(O)(CC(=O)O)C(=O)O (stereo not shown) [Compound A citrate Form C],DVS (weight gain between 30%-80% RH),[1]; 1st adsorption cycle,1.6%
same,DVS (weight gain between 30%-80% RH),[1]; 2nd adsorption cycle,6.1%
same,Post DVS form,[1]; after DVS,changed to Form-A
CCN(C(=O)c1cc(F)ccc1Oc1cncnc1N1CC2(CCN(C[C@H]3CC[C@H](NS(=O)(=O)CC)CC3)CC2)C1)C(C)C.CCN(C(=O)c1cc(F)ccc1Oc1cncnc1N1CC2(CCN(C[C@H]3CC[C@H](NS(=O)(=O)CC)CC3)CC2)C1)C(C)C.O=C(O)/C=C/C(=O)O.O=C(O)/C=C/C(=O)O.O=C(O)/C=C/C(=O)O [Compound A sesquifumarate],"Change in appearance, XRPD or DSC",[2]; binary mixtures with five fillers,No change
same,Impurity A,[2]; control sample and filler mixtures,increased in both control sample and excipient mixtures
same,Trends in assay or related substances,[2]; four disintegrants,No trends
same,"Change in appearance, XRPD or DSC",[2]; four disintegrants,No change
same,Trends in assay or related substances,[2]; glidant and lubricants,No trends
same,"Change in appearance, XRPD or DSC",[2]; glidant and lubricants,No change
same,Trends in assay or related substances,[2]; three binders,No trends
same,"Change in appearance, XRPD or DSC",[2]; three binders,No change
same,Trends in assay or related substances,[2]; two alkalizers,No trends
same,"Change in appearance, XRPD or DSC",[2]; two alkalizers,No change
same,Impurity A formation,"[2]; with Avicel PH 101, Avicel PH113, Avicel DG",did not increase formation of Impurity A
same,Impurity A formation,[2]; with polyols mannitol and sorbitol,accelerate the degradant formation
same,Appearance,"[3]; 25° C., 1 week",Clear
same,Compound A Sesquifumarate Purity (Average % area),"[3]; 25° C., 1 week",99.77 % area
same,Impurity A (Average % area),"[3]; 25° C., 1 week",0.14 % area
same,pH,"[3]; 25° C., 1 week",6.6
same,Appearance,"[3]; 25° C., 2 weeks",Clear
same,Compound A Sesquifumarate Purity (Average % area),"[3]; 25° C., 2 weeks",99.78 % area
same,Impurity A (Average % area),"[3]; 25° C., 2 weeks",0.13 % area
same,pH,"[3]; 25° C., 2 weeks",6.6
same,Appearance,"[3]; 25° C., 4 weeks",Clear
same,Compound A Sesquifumarate Purity (Average % area),"[3]; 25° C., 4 weeks",99.78 % area
same,Impurity A (Average % area),"[3]; 25° C., 4 weeks",0.14 % area
same,pH,"[3]; 25° C., 4 weeks",6.6
same,Appearance,"[3]; 25° C., time 0",Clear
same,Compound A Sesquifumarate Purity (Average % area),"[3]; 25° C., time 0",99.78 % area
same,Impurity A (Average % area),"[3]; 25° C., time 0",0.14 % area
same,pH,"[3]; 25° C., time 0",6.5
same,Appearance,"[3]; 40° C., 1 week",Clear
same,Compound A Sesquifumarate Purity (Average % area),"[3]; 40° C., 1 week",99.75 % area
same,Impurity A (Average % area),"[3]; 40° C., 1 week",0.17 % area
same,pH,"[3]; 40° C., 1 week",6.2
same,Appearance,"[3]; 40° C., 2 weeks",Clear
same,Compound A Sesquifumarate Purity (Average % area),"[3]; 40° C., 2 weeks",99.68 % area
same,Impurity A (Average % area),"[3]; 40° C., 2 weeks",0.24 % area
same,pH,"[3]; 40° C., 2 weeks",6.2
same,Appearance,"[3]; 40° C., 4 weeks",Clear
same,Compound A Sesquifumarate Purity (Average % area),"[3]; 40° C., 4 weeks",99.58 % area
same,Impurity A (Average % area),"[3]; 40° C., 4 weeks",0.34 % area
same,pH,"[3]; 40° C., 4 weeks",6.3
same,Appearance,"[3]; 40° C., time 0",Clear
same,Compound A Sesquifumarate Purity (Average % area),"[3]; 40° C., time 0",99.77 % area
same,Impurity A (Average % area),"[3]; 40° C., time 0",0.14 % area
same,pH,"[3]; 40° C., time 0",6.2
same,Impurity A formation,"[3]; water at pH 5.0, 5.5, 6.0, 4 weeks, 25° C. and 40° C.",increased in a temperature- and time-dependent manner
same,solubility,"[3]; water at pH 5.0, 5.5 and 6.0",≥ 50 mg/mL
same,Biopharmaceutical Classification System solubility definition,[4],highly soluble
same,pH of solution,[4]; 50 mg/mL Compound A solution in water,approximately 3.5
same,Chemical degradation forming impurity A,[5],subject to a chemical degradation
CCN(C(=O)c1cc(F)ccc1Oc1cncnc1N1CC2(CCN(C[C@H]3CC[C@H](NS(=O)(=O)CC)CC3)CC2)C1)C(C)C [FB-1],Crystal Form,[6]; [7],"Form A, w/pattern shift"
same,Crystal Form,[6]; [8],FB-1 w/extra peaks
same,Crystal Form,[6]; [9],Form A → Form C
same,Crystal Form,[6]; [10],Essentially Form C
same,Crystal Form,"[6]; Exp. 11: slurry conditioning, 166 mg, no citric acid, MeCN 1.0 mL, 50 °C",FB-1
same,Crystal Form,"[6]; Exp. 12: slurry conditioning, 166 mg, no citric acid, EtOAc 1.0 mL, 50 °C",FB-1
CCN(C(=O)c1cc(F)ccc1Oc1cncnc1N1CC2(CCN(C[C@H]3CC[C@H](NS(=O)(=O)CC)CC3)CC2)C1)C(C)C [FB-2],Crystal Form,[6]; [7],"Form A, w/pattern shift"
same,Crystal Form,[6]; [8],FB-2 w/extra peaks
same,Crystal Form,[6]; [9],Form A → Form C
same,Crystal Form,[6]; [10],Form A
same,Crystal Form,"[6]; Exp. 9: slurry conditioning, 166 mg, no citric acid, MeCN 1.0 mL, RT",FB-2
same,Crystal Form,"[6]; Exp. 10: slurry conditioning, 166 mg, no citric acid, EtOAc 1.0 mL, RT",FB-2
same,Crystal Form,"[6]; Exp. 13: reactive crystallization, citric acid 15 mg, MeCN 0.5 mL, RT (Form C in MeCN; Hazy → FB + Acid)",Form C
same,Crystal Form,"[6]; Exp. 14: reactive crystallization, citric acid 15 mg, MeCN 0.5 mL, RT (FB + Acid in MeCN → CL → Form C)",Form C
same,Crystal Form,"[6]; Exp. 15: citric acid 30 mg, MeCN 0.5 + 1.5 mL, RT, 1:2 of FB:Acid",Form C
